Data on twelve molecules can be found in publication PMC12073189, “Synthesis and Evaluation of a Novel Zuranolone Analog with High GABAA Receptor PAM Activity and Excellent Pharmacokinetic Profiles” (Molecules, 2025).

In one data set the target is T1, α1β2γ2 GABAA receptor (Homo sapiens, UniProt P14867+P47870).
T1 construct: expressed in transfected cells
As to the kind of experiment: Whole-cell electrophysiology of GABA-evoked currents, LTK cells. The data set is classed as cell-based. Particulars: for EC50 / Emax: LTK cells, n = 3; for EC50: 1 μmol/L GABA (EC20), read-out: α1β2γ2 EC50; for Emax: current induced by 1 μmol/L GABA = 100%; for activity as % of that of Zuranolone: GABAA receptor subtypes. As for the experimental part: (§1) The α1β2γ2 and α4β3δ GABAA receptor subtypes, representing synaptic and extrasynaptic subunit compositions in neurons, are widely utilized for screening new NAS drugs. In this study, a preliminary SAR study was conducted on a series of Zuranolone analogs using the LogP values predicted by ADMETlab3.0 software, recombinant human GABAA receptor cell lines, and in vitro liver microsome stability assays. The results are summarized in Table 1, Table 2, and Table 3, respectively.
(§2) The effects of Zuranolone and synthetic analogs on GABA-evoked currents were assessed in LTK cells stably expressing α1β2γ2 GABAA receptor subunits (n = 3) or CHO cells transiently expressing α4β3δ receptors (n = 3). Whole-cell mode recordings were conducted using the HEKA EPC-10 amplifier and analyzed with PatchMaster software (version 2x90, HEKA Elektronik, Lambrecht, Germany). High-throughput whole-cell recordings were performed using the Q-Patch method from Sophion. Test substances were dissolved in DMSO (dimethyl sulfoxide) to prepare 10 mmol/L stock solutions, then diluted with perfusion bath solution to concentrations ranging from 0.01 to 10 μmol/L. In this experiment, the effects of Zuranolone and its synthetic analogs on GABA-induced currents were examined in the presence of a submaximal agonist concentration at 1 μmol/L GABA (EC20). Cells were pre-incubated with increasing doses of test substances for 30 s, followed by 2 s of GABA stimulation, and currents were recorded. The maximum efficacy (Emax) of the GABAA receptor is expressed with the current induced by 1 μmol/L GABA taken as 100%, and the percentage after treatment with the test compound is calculated. The EC50 values are determined by fitting the three concentration–response curves recorded from three cells.

A short description of data set [1]: Liver microsome metabolic stability (RLM). Format: in vitro ADME, rat. Particulars: pH 7.4; rat liver microsomes; read-out: RLM T1/2. As for the experimental part: (§3) We quantified S1–S15 and Zuranolone using a UPLC-MS/MS (Agilent 1290 Infinity II UHPLC (Agilent Technologies, Santa Clara, CA, USA) coupled with a QTRAP 5500 MS/MS (ESI source) (SCIEX, Redwood City, CA, USA for MS/MS). The method assessed the content level of S9 and Zuranolone in microsome metabolism and in rat brain tissue and plasma. An ACQUITY UPLC Peptide BEH C18 column (Waters; 50 × 2.1 mm, 1.7 μm; 60 °C; Waters Corporation, Milford, MA, USA) was used with a mobile phase of 0.02% propionic acid in water (A) and acetonitrile (B). The gradient elution of the mobile phase B is carried out as follows: it is 10% from 0 to 0.5 min, 90% from 0.8 to 2.5 min, and 10% from 2.8 to 3.5 min, with a flow rate of 0.40 mL/min. Quantitative analysis was performed on a QTRAP 5500 MS (SCIEX, Redwood City, CA, USA) in positive ionization mode with MRM (multiple reaction monitoring), using progesterone-d9 as the internal standard. MRM transitions and parameters were optimized for each analyte, with collision energies of 25 V (S1–S15), 23 V (Zuranolone), and 30 V (IS), and declustering potentials of 80 V (S1–S15), 90 V (Zuranolone), and 180 V (IS). Other conditions were as follows: curtain gas 10 psi, collision gas ‘medium’, ion spray voltage 5500 V, temperature 500 °C, and ionization source gases 1 and 2 at 50 psi.
(§4) To evaluate the metabolic stability of compounds S1–S15 and Zuranolone in RLM and HLM, we designed the following in vitro liver microsome metabolism assay protocol. In a 1.5 mL centrifuge tube, sequentially add 173 μL of PBS (0.1 M, pH 7.4), 5 μL of liver microsomes (20 mg/mL), and 2 μL of the test compound (100 μmol/L). After thorough mixing, pre-incubate at 37 °C for 10 min. Subsequently, add 20 μL of NADPH to initiate the metabolism, with a parallel control without NADPH, to validate the background signal. Samples were collected at 0, 5, 10, 20, 30, and 60 min post-reaction initiation. At each designated time point, we quenched the reaction with ice-cold acetonitrile (600 μL). After centrifuging the mixture, we analyzed the supernatant using UPLC-MS/MS. For data analysis, the compound concentration at 0 min was set as 100%, with concentrations at subsequent time points expressed as residual percentages relative to the initial value, and the in vitro half-life (T1/2) and intrinsic clearance (CLint) were calculated.

Another data set has as its target T2, α4β3δ GABAA receptor (Homo sapiens, UniProt P28472+P48169).
T2 construct: expressed in transfected cells; host or cells: CHO cells (transient expression)
As to the kind of experiment: Whole-cell electrophysiology of GABA-evoked currents, CHO cells. The data set is classed as cell-based. Particulars: for EC50 / Emax: CHO cells, n = 3; for EC50: 1 μmol/L GABA (EC20), read-out: α4β3δ EC50; for Emax: current induced by 1 μmol/L GABA = 100%. As for the experimental part:
as §1, §2

A short description of data set [2]: Liver microsome metabolic stability (HLM). The data set is classed as in vitro ADME, human. To be noted: pH 7.4; human liver microsomes; read-out: HLM T1/2. As for the experimental part: as §3, §4

T2 sequence (P48169 36-554): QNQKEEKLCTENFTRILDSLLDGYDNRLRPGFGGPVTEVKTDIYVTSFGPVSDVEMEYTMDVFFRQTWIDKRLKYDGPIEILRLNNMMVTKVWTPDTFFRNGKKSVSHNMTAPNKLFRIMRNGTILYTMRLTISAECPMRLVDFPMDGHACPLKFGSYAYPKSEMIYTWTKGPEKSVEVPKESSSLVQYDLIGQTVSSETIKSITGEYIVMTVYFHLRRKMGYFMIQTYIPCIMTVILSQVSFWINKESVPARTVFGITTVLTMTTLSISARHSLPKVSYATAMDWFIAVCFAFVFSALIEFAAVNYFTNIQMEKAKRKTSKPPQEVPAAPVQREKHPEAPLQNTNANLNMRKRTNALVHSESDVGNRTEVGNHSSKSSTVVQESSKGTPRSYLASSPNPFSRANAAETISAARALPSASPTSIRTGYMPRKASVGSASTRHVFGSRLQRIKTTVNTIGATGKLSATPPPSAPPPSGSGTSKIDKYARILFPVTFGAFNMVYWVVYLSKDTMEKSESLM
T2 sequence (P28472 26-473): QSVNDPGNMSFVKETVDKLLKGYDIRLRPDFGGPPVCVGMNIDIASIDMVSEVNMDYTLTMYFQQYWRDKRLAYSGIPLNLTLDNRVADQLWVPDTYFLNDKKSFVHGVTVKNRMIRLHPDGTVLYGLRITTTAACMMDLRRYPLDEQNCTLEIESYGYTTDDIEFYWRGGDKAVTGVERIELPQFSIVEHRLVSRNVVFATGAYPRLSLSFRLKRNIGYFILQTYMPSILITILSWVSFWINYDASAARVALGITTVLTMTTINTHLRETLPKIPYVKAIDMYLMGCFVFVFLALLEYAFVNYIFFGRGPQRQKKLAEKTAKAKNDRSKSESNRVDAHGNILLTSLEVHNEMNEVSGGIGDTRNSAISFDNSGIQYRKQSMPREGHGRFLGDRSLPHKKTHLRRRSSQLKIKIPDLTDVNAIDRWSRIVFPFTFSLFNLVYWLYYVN
T2 sequence (O14764 25-452 partner): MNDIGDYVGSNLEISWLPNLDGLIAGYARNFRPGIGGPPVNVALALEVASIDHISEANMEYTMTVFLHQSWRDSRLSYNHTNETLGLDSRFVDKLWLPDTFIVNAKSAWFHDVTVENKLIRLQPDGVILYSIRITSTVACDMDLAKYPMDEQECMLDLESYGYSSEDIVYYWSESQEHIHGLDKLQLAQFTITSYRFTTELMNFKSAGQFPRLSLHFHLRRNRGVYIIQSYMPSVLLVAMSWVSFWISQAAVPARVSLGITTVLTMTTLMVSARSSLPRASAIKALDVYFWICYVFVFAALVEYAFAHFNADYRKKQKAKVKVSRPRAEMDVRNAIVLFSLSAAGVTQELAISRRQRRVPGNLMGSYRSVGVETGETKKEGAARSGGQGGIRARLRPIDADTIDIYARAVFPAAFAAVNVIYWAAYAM
T1 sequence (P14867 28-456): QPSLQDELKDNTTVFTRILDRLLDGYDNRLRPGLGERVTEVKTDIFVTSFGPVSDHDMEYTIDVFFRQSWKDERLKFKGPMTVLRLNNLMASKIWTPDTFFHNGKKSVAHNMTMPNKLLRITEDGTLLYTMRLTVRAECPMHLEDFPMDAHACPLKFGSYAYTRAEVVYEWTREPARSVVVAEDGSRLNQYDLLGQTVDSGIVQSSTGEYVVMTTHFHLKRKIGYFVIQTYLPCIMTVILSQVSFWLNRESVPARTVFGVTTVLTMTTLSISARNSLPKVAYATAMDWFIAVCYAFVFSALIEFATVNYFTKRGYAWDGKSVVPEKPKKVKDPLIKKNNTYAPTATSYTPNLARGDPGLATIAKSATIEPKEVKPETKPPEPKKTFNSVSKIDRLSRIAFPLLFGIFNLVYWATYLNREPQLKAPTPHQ
T1 sequence (P47870 25-512 limits assumed): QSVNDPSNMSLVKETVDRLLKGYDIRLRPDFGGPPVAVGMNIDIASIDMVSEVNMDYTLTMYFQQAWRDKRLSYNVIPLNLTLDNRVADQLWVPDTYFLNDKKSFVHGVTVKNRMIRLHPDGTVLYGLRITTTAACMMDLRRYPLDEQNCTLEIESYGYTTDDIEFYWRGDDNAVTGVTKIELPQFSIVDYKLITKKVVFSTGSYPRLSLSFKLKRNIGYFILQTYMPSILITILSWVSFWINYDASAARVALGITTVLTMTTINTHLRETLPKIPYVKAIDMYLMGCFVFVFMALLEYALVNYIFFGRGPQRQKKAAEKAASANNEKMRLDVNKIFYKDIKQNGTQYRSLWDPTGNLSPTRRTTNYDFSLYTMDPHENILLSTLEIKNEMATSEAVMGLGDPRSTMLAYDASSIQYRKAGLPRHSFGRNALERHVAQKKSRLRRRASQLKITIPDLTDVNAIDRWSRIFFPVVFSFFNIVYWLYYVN
T1 sequence (P18507 40-475 partner): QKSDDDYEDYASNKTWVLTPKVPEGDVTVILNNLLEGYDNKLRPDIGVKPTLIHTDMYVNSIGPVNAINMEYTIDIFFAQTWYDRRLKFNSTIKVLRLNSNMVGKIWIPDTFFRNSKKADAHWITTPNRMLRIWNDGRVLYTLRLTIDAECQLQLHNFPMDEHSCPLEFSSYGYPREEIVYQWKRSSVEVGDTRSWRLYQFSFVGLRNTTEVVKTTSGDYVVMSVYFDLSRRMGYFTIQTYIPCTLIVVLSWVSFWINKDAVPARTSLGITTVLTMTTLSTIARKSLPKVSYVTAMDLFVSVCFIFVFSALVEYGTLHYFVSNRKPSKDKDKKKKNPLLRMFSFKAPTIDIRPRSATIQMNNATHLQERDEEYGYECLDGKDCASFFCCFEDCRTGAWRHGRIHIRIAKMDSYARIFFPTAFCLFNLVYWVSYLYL

For `COCCn1ncn(CC(=O)[C@H]2CC[C@H]3[C@@H]4CC[C@@H]5C[C@](C)(O)CC[C@@H]5[C@H]4CC[C@]23C)c1=O` [S1], the EC50 at α1β2γ2 GABAA receptor was determined as 227 ± 52 nM; on α4β3δ GABAA receptor, 86 ± 25 nM. The Emax on α1β2γ2 GABAA receptor worked out at 735 ± 75%; at α4β3δ GABAA receptor, 609 ± 83%. The half-life at 1 µM in data set [1] was 11 min; in data set [2], 34 min.
For `C[C@@]1(O)CC[C@H]2[C@H](CC[C@@H]3[C@@H]2CC[C@]2(C)[C@@H](C(=O)Cn4ncn(CC5CC5)c4=O)CC[C@@H]32)C1` [S2], on α1β2γ2 GABAA receptor, the EC50 was 58 ± 10 nM and the Emax is 320 ± 25%. Also, on α4β3δ GABAA receptor, the EC50 is 140 ± 10 nM and the Emax is 450 ± 35%.
Consider `COc1ccc(-n2ncn(CC(=O)[C@H]3CC[C@H]4[C@@H]5CC[C@@H]6C[C@](C)(O)CC[C@@H]6[C@H]5CC[C@]34C)c2=O)cn1` [S3], for which the “activity as % of that of Zuranolone” value at α1β2γ2 GABAA receptor (not separated) is “less than 50%”. Further, the EC50 is 167 ± 37 nM on α1β2γ2 GABAA receptor and 134 ± 32 nM on α4β3δ GABAA receptor. Also, the Emax at α1β2γ2 GABAA receptor was determined as 389 ± 50%; on α4β3δ GABAA receptor, 474 ± 53%. Besides, the half-life at 1 μmol/L was 16 min in data set [1] and 73 min in data set [2].
`Cc1cc(-n2ncn(CC(=O)[C@H]3CC[C@H]4[C@@H]5CC[C@@H]6C[C@](C)(O)CC[C@@H]6[C@H]5CC[C@]34C)c2=O)cc(C)n1` [S4]: the “activity as % of that of Zuranolone” value at α1β2γ2 GABAA receptor (not separated) is reported as “less than 50%”. On α1β2γ2 GABAA receptor, the EC50 was determined as 171 ± 40 nM and the Emax came out at 691 ± 72%. Moreover, at α4β3δ GABAA receptor, the concentration for a half-maximal effect (EC50) turned out to be 41 ± 19 nM and the Emax stood at 563 ± 85%.
Take `C[C@@]1(O)CC[C@H]2[C@H](CC[C@@H]3[C@@H]2CC[C@]2(C)[C@@H](C(=O)Cn4cnn(-c5cccnc5)c4=O)CC[C@@H]32)C1` [S5]: the EC50 at α1β2γ2 GABAA receptor stood at 373 ± 45 nM; on α4β3δ GABAA receptor, 61 ± 15 nM. In addition, the Emax on α1β2γ2 GABAA receptor worked out at 773 ± 87%; at α4β3δ GABAA receptor it was 391 ± 64%. Also, the results for the half-life at 1 μmol/L in data set [1] and in data set [2] were 11 min and 24 min, respectively.
Turning to `C[C@@]1(O)CC[C@H]2[C@H](CC[C@@H]3[C@@H]2CC[C@]2(C)[C@@H](C(=O)Cn4cnn(-c5cc(Cl)ccn5)c4=O)CC[C@@H]32)C1` [S7], the EC50 came to 109 ± 27 nM on α1β2γ2 GABAA receptor and 72 ± 21 nM on α4β3δ GABAA receptor. The Emax at α1β2γ2 GABAA receptor was determined as 624 ± 29%; at α4β3δ GABAA receptor, 589 ± 63%. Also, the “potency higher than Zuranolone” value at α1β2γ2 GABAA receptor (synaptic and extrasynaptic GABAA receptor subtypes, not separated) is on record as “approximately 10%”. Further, the figures for the half-life at 1 μmol/L in data set [1] and in data set [2] were 21 min and 69 min, respectively.
With `C[C@@]1(O)CC[C@H]2[C@H](CC[C@@H]3[C@@H]2CC[C@]2(C)[C@@H](C(=O)Cn4cnn(-c5ccnc(C(F)F)c5)c4=O)CC[C@@H]32)C1` [S8], the EC50 came out at 83 ± 24 nM on α1β2γ2 GABAA receptor and 49 ± 15 nM on α4β3δ GABAA receptor. Besides, the values for the Emax at α1β2γ2 GABAA receptor and on α4β3δ GABAA receptor were 600 ± 69% and 432 ± 55%, respectively. Moreover, the “potency as % of that of Zuranolone” value on α1β2γ2 GABAA receptor (synaptic GABAA receptors) is 140%; on α4β3δ GABAA receptor (extrasynaptic GABAA receptors), 150%. Also, the figures for the half-life at 1 μmol/L in data set [1] and in data set [2] were 29 min and 23 min, respectively.
As for `C[C@@]1(O)CC[C@H]2[C@H](CC[C@@H]3[C@@H]2CC[C@]2(C)[C@@H](C(=O)Cn4ncn(-c5ccc(F)cc5)c4=O)CC[C@@H]32)C1` [S10], the “activity as % of that of Zuranolone” value at α1β2γ2 GABAA receptor (not separated) is recorded as “less than 50%”. Further, the EC50 on α1β2γ2 GABAA receptor is 12.4 ± 5 nM; on α4β3δ GABAA receptor it was 148 ± 25 nM. For the same molecule, the Emax was determined as 294 ± 52% at α1β2γ2 GABAA receptor and 428 ± 45% at α4β3δ GABAA receptor. Besides, the half-life at 1 μmol/L is 10 min in data set [1] and 33 min in data set [2].
For the molecule `C[C@@]1(O)CC[C@H]2[C@H](CC[C@@H]3[C@@H]2CC[C@]2(C)[C@@H](C(=O)Cn4cnn(-c5cccc(C(N)=O)c5)c4=O)CC[C@@H]32)C1` [S12], the “activity as % of that of Zuranolone” value on α1β2γ2 GABAA receptor (not separated) is “less than 50%”. The EC50 at α1β2γ2 GABAA receptor amounted to 153 ± 33 nM; at α4β3δ GABAA receptor, 159 ± 20 nM. The Emax came out at 764 ± 65% on α1β2γ2 GABAA receptor and 386 ± 50% at α4β3δ GABAA receptor. Besides, the half-life at 1 μmol/L in data set [1] worked out at 18 min; in data set [2] it was 29 min.
Take `C[C@@]1(O)CC[C@H]2[C@H](CC[C@@H]3[C@@H]2CC[C@]2(C)[C@@H](C(=O)Cn4cnn(-c5cc(F)cc(C#N)c5)c4=O)CC[C@@H]32)C1` [S13]: the EC50 on α1β2γ2 GABAA receptor was determined as 72 ± 16 nM; at α4β3δ GABAA receptor, 37 ± 12 nM. For the same molecule, the figures for the Emax on α1β2γ2 GABAA receptor and on α4β3δ GABAA receptor were 518 ± 87% and 549 ± 101%, respectively. In addition, the half-life at 1 μmol/L in data set [1] was found to be 90 min; in data set [2], 40 min.
Consider `C[C@@]1(O)CC[C@H]2[C@H](CC[C@@H]3[C@@H]2CC[C@]2(C)[C@@H](C(=O)Cn4cnn(CCOC(F)(F)F)c4=O)CC[C@@H]32)C1` [S14], for which the EC50 came out at 770 ± 104 nM on α1β2γ2 GABAA receptor and 460 ± 59 nM at α4β3δ GABAA receptor. In addition, the results for the Emax on α1β2γ2 GABAA receptor and on α4β3δ GABAA receptor were 576 ± 78% and 889 ± 126%, respectively. Moreover, the half-life at 1 μmol/L in data set [1] came out at 23 min; in data set [2], 31 min.
On to `C[C@@]1(O)CC[C@H]2[C@H](CC[C@@H]3[C@@H]2CC[C@]2(C)[C@@H](C(=O)Cn4c(=O)n(-c5ccccc5)c5ccccc54)CC[C@@H]32)C1` [S15], for which the results for the EC50 on α1β2γ2 GABAA receptor and at α4β3δ GABAA receptor were 31 ± 12 nM and 55 ± 15 nM, respectively. Moreover, the results for the Emax at α1β2γ2 GABAA receptor and on α4β3δ GABAA receptor were 305 ± 62% and 470 ± 94%, respectively. Also, the values for the half-life at 1 μmol/L in data set [1] and in data set [2] were 210 min and 248 min, respectively.
